From ChEMBL document CHEMBL1138898 (Bioorg Med Chem Lett, 2006)

Biological target: not listed separately
Test: Binding affinity to alpha-2delta calcium channel

Structure (SMILES)	Ki [nM]
CCCC(CCC)CC(CN)c1nnn[nH]1 (stereo not given)	280
NCCc1nnn[nH]1	> 10000
NCC(c1ccccc1)c1nnn[nH]1 (stereo not given)	> 10000
CC(C)C(CN)c1nnn[nH]1 (stereo not given)	130
CC(C)CCC(CN)c1nnn[nH]1 (stereo not given)	210
NCC(CCCCc1ccccc1)c1nnn[nH]1 (stereo not given)	130
CC(C)(CN)c1nnn[nH]1	> 10000
NCC(Cc1ccccc1)(Cc1ccccc1)c1nnn[nH]1	> 10000
CC(CN)(Cc1ccccc1)c1nnn[nH]1 (stereo not given)	900
NCC(CCCCCc1ccccc1)c1nnn[nH]1 (stereo not given)	500
CC(CN)(Cc1cccc(C(F)(F)F)c1)c1nnn[nH]1 (stereo not given)	160
NCC(CCc1ccccc1)c1nnn[nH]1 (stereo not given)	3100
NCC(CC1CCCCC1)c1nnn[nH]1 (stereo not given)	570
CC(C)C1CC1(CN)c1nnn[nH]1 (stereo not given)	190
CCCCCCC(CN)c1nnn[nH]1 (stereo not given)	330
CCC(CC)C1CC1(CN)c1nnn[nH]1 (stereo not given)	4000
NCC1(c2nnn[nH]2)CC12CCCCC2 (stereo not given)	33
NCC(c1nnn[nH]1)C1CCCCC1 (stereo not given)	150
NCC(Cc1ccccc1)c1nnn[nH]1 (stereo not given)	7600
NCC(CCCc1ccccc1)c1nnn[nH]1 (stereo not given)	2100
CC(CN)(Cc1ccc(F)c(F)c1)c1nnn[nH]1 (stereo not given)	520
CCC(CC)CC(CN)c1nnn[nH]1 (stereo not given)	11
NCC(c1nnn[nH]1)C1CCCC1 (stereo not given)	18
CC(C)CC(CN)c1nnn[nH]1 (stereo not given)	17

Tested on: Mus musculus
Test: Protection of DBA/2 mouse against audiogenic-induced tonic seizure at 30 mg/kg, po after 1 hr
Type: functional

Structure (SMILES)	Activity [%]
CCC(CC)CC(CN)c1nnn[nH]1 (stereo not given)	60
CC(C)CC(CN)c1nnn[nH]1 (stereo not given)	40
CC(C)C[C@H](CN)CC(=O)O [PREGABALIN]	100

Tested on: Mus musculus
Test: Protection of DBA/2 mouse against audiogenic-induced tonic seizure at 30 mg/kg, po after 2 hrs
Type: functional

Structure (SMILES)	Activity [%]
CCC(CC)CC(CN)c1nnn[nH]1 (stereo not given)	100
CC(C)CC(CN)c1nnn[nH]1 (stereo not given)	80
CC(C)C[C@H](CN)CC(=O)O [PREGABALIN]	100
